Laboratory results reported in patent US10196357B2, “Biaryl compositions and methods for modulating a kinase cascade” (Athenex, Inc., priority 2007, dated 2019).

Columns and labels:
isolated FAK = isolated FAK (Homo sapiens, UniProt Q05397); assay: titration against isolated FAK; assay type: biochemical; details: titration data
EGFR(h) = EGFR(h) (Homo sapiens, UniProt P00533); assay: isolated kinase activity, EGFR; assay type: biochemical; details: compound @ 10 μM
Excerpt: (§1) Table 8 illustrates percent activity of isolated kinases in the presence of the AstraZeneca ATP-competitive inhibitor (KX2-328, AZ-28) or KX2-391 relative to control (untreated) isolated kinases.

PI3 kinase = assay: isolated kinase activity, PI3 kinase; assay type: biochemical; details: compound @ 10 μM
Excerpt: as §1

PKCα(h) = PKCα(h) (Homo sapiens, UniProt P17252); assay: isolated kinase activity, PKCα; assay type: biochemical; details: compound @ 10 μM
Excerpt: as §1

[1] = system: total phosphotyrosine levels; assay: total phosphotyrosine levels; assay type: cell-based; details: HT29 and c-Src527F/NIH-3T3 cells
Experimental: (§2) HT29 (colon cancer) and c-Src527F/NIH-3T3 (Src transformed) cell lines were treated with KX2-391 or with AstraZeneca's ATP competitive Src inhibitor AZ28. AZ28 serves as a positive comparator to show what a validated Src inhibitor should do in these assays. After treatment with compound, cells were lysed, subjected to PAGE and probed with a battery of antibodies. […] In addition, off-target protein phosphorylation was also investigated. Further, induction of apoptosis was evaluated via Caspase 3 cleavage. Multiple doses of each compound were tested because the trends in response to increasing drug concentration are the most reliable indicator of activity.
(§3) The same range of multiples of the GI50 for AZ28 in these two cell lines was run as a comparison.

MAPK2(h) = MAPK2(h) (Homo sapiens, UniProt P28482); assay: isolated kinase activity, MAPK2; assay type: biochemical; details: compound @ 10 μM
Excerpt: as §1

Lyn(h) = Lyn(h) (Homo sapiens, UniProt P07948); assay: isolated kinase activity, Lyn; assay type: biochemical; details: compound @ 10 μM
Excerpt: as §1

Caspase-3 cleavage = assay: induction of apoptosis via Caspase 3 cleavage; assay type: cell-based; details: HT29 and c-Src527F/NIH-3T3 cells
Experimental: as §2, §3
Cleavage of Caspase-3 is a good measure of induction of apoptosis.

786-O = assay: renal tumor cell growth inhibition, 786-O; assay type: cell-based, Human; details: renal cell adenocarcinoma
Experimental: (§4) These GI50s were determined using standard tumor growth inhibition assays, similar to those described in detail in this Example 7.

769-P = assay: renal tumor cell growth inhibition, 769-P; assay type: cell-based, Human; details: renal cell adenocarcinoma
Experimental: as §4

[2] = system: HT29 (human colon cancer); details: KXO1 2.0 and 4 mg/kg bid vs Dasatinib 25 then 15 mg/kg bid, 28 days
Daoy = assay: brain tumor cell growth inhibition, Daoy; assay type: cell-based, Human; details: desmoplastic cerebellar medulloblastoma, read-out: IC50 (title: GI50)
HCT116 = assay: MTT growth inhibition, Dasatinib-resistant HCT116; assay type: cell-based, human; details: HCT116, 8.0×10^3 cells/well, […] FBS, 78 Hr
Experimental: (§6) Cell proliferation/growth inhibition was assessed using MTT colorimetric assay.
(§7) On Day 3, 10 μL MTT (5 mg/mL) was added to each well. Cells were then incubated in the presence of MTT for 4 hours at 37° C., appropriate CO2 conditions. After this incubation period, 90 μL 10% SDS(+HCl) was added to each well to lyse cells and solubilize formazan. Cells were then incubated overnight at 37° C., appropriate CO2 conditions.
(§8) The OD570 was measured using microplate reader. Growth inhibition curves and EC50/IC50 was determined using GraphPad Prism 4 statistical software.

JAK2 Y1007/1008 = assay: whole cell phosphorylation, JAK2; assay type: cell-based; details: whole cells
SK-N-FI = assay: brain tumor cell growth inhibition, SK-N-FI; assay type: cell-based, Human; details: neuroblastoma, read-out: IC50 (title: GI50)
Ba/F3 (IL-3 induced) = assay: MTT growth inhibition, Ba/F3 + IL-3; assay type: cell-based; details: 96 hrs, read-out: GI50
[3] = system: MOLT-4 (Adult lymphoblastic leukemia); assay: growth inhibition, MOLT-4; assay type: cell-based, Human
[4] = system: Ba/F3 + BCR-Abl E225K mutant; assay: MTT growth inhibition, Ba/F3 + BCR-Abl E225K; assay type: cell-based; details: 96 hrs
Excerpt: (§5) Cultures of Ba/F3 cells were also transfected to express wild-type (WT) Bcr-Abl, E255K mutation of Bcr-Abl, or T315I mutation of Bcr-Abl and cultured in 96-well plates in complete media without IL-3. The Ba/F3 cell line is rendered Gleevec resistant when the mutation in the Bcr/Abl tyrosine kinase […] is present. […] All assays are in triplicate.

[5] = system: protein tyrosine kinases (PTKs); assay: selectivity for protein tyrosine kinases in whole cells; assay type: cell-based; details: as compared to Dasatinib
Excerpt: The compounds of the invention are selective for protein tyrosine kinases (PTKs). […] SYF cells are mouse fibroblasts that lack the Src kinase family members Src, Yes and Fyn.

[6] = system: PC3-MM2 prostate cancer cells; assay: orthotopic prostate model for in vivo metastases; set-up: species or system Nu/Nu mice
Experimental: Nu/Nu mice (8-12 weeks of age) were injected with PC3-MM2 prostate cancer cells into the prostate as described previously in Pettaway et al., Clin Cancer Res 1996, 2:1627-1636, hereby incorporated herein by reference in its entirety. […] All mice were sacrificed by cervical dislocation on about day 42. Tumor volume (measured by caliper), weight, and incidence of regional (celiac or para-aortal) lymph node metastases were recorded.

H460 = assay: MTT growth inhibition, Dasatinib-resistant H460; details: H460, 8.0×10^3 cells/well, […] FBS, 78 Hr
Experimental: as §6, §7, §8

[7] = system: K562R (Gleevec resistant CML); assay: growth inhibition, K562R; assay type: cell-based, Human
Ba/F3 + WT BCR-Abl = assay: MTT growth inhibition, Ba/F3 + WT BCR-Abl; assay type: cell-based; details: 96 hrs
Excerpt: as §5

ACHN = assay: renal tumor cell growth inhibition, ACHN; assay type: cell-based, Human; details: renal cell adenocarcinoma
Experimental: as §4

[8] = system: EGFR tyrosine kinase autophosphorylation; assay: EGFR tyrosine kinase autophosphorylation in cells; assay type: cell-based; details: tumor cells, FIG. 9, EGF Y845
Experimental: as §2, §3
This site is not a direct Src phosphorylation site.

[9] = system: Jurkat (Adult T cell leukemia); assay: growth inhibition, Jurkat; assay type: cell-based, Human
SW1088 = assay: brain tumor cell growth inhibition, SW1088; assay type: cell-based, Human; details: SW1088, astrocytoma; read-out: IC50 (title: GI50)
GL261 = assay: brain tumor cell growth inhibition, GL261; assay type: cell-based; details: GL261, mouse glioblastoma; read-out: IC50 (title: GI50)

Sequence of EGFR(h) (P00533 25-1210): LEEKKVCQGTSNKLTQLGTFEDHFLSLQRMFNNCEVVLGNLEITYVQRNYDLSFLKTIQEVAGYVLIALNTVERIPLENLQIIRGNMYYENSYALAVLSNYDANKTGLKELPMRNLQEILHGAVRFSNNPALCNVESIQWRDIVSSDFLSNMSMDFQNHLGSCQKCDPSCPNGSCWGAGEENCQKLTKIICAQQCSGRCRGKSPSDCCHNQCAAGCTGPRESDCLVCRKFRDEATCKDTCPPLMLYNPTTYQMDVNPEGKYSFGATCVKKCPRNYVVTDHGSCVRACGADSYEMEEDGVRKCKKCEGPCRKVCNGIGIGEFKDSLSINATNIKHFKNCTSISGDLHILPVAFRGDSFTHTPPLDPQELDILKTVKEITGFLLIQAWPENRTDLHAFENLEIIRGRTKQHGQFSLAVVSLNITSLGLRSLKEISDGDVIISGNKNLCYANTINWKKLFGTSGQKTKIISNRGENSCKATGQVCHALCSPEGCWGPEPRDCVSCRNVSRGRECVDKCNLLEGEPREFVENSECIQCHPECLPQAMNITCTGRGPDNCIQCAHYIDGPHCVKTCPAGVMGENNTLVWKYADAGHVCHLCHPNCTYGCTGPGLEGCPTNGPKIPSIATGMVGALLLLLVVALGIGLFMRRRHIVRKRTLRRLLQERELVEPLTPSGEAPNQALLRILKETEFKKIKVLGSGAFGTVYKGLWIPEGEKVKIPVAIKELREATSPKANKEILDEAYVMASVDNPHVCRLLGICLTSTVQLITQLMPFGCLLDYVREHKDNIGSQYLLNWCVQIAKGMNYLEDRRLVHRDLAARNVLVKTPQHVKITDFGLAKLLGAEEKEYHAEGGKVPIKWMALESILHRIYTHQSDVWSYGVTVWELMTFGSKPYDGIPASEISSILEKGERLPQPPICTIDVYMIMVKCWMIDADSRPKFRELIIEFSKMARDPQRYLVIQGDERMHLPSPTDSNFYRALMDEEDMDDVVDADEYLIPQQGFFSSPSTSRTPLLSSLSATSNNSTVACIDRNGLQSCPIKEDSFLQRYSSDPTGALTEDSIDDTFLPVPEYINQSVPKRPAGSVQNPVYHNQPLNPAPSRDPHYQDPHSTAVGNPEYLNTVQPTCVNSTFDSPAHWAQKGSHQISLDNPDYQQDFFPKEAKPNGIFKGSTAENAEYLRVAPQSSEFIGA
Sequence of Lyn(h) (P07948 whole entry): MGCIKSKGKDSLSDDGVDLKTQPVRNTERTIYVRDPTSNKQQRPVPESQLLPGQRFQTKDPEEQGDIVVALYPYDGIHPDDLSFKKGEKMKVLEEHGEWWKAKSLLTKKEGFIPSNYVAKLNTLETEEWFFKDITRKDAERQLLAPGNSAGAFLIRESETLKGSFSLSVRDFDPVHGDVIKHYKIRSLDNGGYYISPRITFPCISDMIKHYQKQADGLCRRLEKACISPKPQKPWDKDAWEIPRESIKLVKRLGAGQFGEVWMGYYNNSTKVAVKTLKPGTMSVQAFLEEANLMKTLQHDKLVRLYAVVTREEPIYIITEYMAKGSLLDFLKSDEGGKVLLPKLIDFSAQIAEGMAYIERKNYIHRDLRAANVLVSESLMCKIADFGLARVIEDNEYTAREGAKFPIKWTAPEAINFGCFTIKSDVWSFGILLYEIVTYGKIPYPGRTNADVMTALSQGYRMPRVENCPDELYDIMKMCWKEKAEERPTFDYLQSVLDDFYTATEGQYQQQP
Sequence of isolated FAK (Q05397 whole entry): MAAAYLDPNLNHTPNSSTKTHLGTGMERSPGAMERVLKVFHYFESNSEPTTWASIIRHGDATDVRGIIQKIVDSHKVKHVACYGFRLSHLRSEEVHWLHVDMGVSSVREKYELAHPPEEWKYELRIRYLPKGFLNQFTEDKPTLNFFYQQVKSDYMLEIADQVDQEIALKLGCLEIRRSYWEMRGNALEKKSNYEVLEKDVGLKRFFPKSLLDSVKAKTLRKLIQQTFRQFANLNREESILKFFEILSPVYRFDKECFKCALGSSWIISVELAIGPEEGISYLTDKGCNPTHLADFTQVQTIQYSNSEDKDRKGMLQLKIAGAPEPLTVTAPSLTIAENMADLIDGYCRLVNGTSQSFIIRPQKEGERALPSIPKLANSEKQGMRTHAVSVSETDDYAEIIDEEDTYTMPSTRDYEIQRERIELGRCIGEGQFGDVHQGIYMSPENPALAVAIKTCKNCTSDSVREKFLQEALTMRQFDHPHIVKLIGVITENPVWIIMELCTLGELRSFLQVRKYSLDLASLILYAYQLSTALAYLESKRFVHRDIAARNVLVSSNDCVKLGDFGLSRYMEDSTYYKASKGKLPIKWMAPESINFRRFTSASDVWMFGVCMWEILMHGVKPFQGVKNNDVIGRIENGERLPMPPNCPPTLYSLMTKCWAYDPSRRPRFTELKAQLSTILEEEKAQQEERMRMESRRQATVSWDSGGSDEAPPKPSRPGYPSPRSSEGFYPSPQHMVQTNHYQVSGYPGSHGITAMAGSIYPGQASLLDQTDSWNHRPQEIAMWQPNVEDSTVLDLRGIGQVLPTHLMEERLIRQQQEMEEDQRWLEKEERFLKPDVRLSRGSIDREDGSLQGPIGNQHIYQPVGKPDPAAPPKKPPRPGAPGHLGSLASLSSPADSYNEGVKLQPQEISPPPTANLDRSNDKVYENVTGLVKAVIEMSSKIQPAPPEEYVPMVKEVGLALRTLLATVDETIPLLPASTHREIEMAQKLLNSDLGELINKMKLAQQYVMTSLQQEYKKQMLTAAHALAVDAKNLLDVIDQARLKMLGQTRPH
Sequence of MAPK2(h) (P28482 whole entry): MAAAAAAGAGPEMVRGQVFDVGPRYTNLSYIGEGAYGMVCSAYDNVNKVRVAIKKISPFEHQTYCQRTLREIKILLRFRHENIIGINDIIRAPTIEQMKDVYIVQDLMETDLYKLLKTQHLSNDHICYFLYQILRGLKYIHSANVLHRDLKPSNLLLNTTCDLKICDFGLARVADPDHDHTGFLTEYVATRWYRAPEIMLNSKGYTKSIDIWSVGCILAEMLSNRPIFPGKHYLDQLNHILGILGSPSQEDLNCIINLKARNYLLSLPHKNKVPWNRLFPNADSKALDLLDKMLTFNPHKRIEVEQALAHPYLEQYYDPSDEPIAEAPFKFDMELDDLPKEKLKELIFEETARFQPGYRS

SMILES: O=C(Cc1ccc(-c2ccc(OCCN3CCOCC3)cc2)cn1)NCc1ccccc1 [KX2-391]
- IC50 (isolated FAK): > 48000 nM
- percent activity of isolated kinase relative to control (EGFR(h)): 134%
- percent activity of isolated kinase relative to control (PI3 kinase): 100%
- percent activity of isolated kinase relative to control (PKCα(h)): 111%
- total phosphotyrosine levels [1]: reduction in the total phosphotyrosine levels
- percent activity of isolated kinase relative to control (MAPK2(h)): 112%
- percent activity of isolated kinase relative to control (Lyn(h)): 113%
- induction of apoptosis (Caspase-3 cleavage) (Caspase-3 cleavage): very effective in inducing apoptosis

SMILES: O=C(Cc1ccc(-c2ccc(OCCN3CCOCC3)cc2)cn1)NCc1ccccc1 [KXO1]
- GI50 (786-O): 378 nM
- GI50 (769-P): 45 nM
- oral potency in staged HT29 mouse xenografts [2]: higher oral potency
- IC50 (Daoy): 13.6 nM
- IC50 (HCT116): 31 nM
- IC80 (HCT116): 106 nM
- IC90 (HCT116): 195 nM
- phosphorylation of JAK2 Y1007/1008 (JAK2 Y1007/1008): not inhibited
- IC50 (SK-N-FI): 1.7 nM
- GI50 (Ba/F3 (IL-3 induced)): 3.5 nM
- GI50 [3]: 13 nM
- GI50 [4]: 80 nM
- PTK selectivity in whole cells [5]: very high PTK selectivity
- LN metastasis ([6]; 5.0 mg/kg/day oral gavage): 4/5
- Tumor incidence ([6]; 5.0 mg/kg/day oral gavage): 5/6
- Tumor weight (g) Median ([6]; 5.0 mg/kg/day oral gavage): 1.16 g
- LN metastasis ([6]; 10.0 mg/kg/day oral gavage): 2/5
- Tumor incidence ([6]; 10.0 mg/kg/day oral gavage): 5/6
- Tumor weight (g) Median ([6]; 10.0 mg/kg/day oral gavage): 0.35 g
- IC50 (H460): 51 nM
- IC80 (H460): 105 nM
- IC90 (H460): 162 nM
- GI50 [7]: 0.64 nM
- GI50 (Ba/F3 + WT BCR-Abl): 85 nM
- GI50 (ACHN): 33.2 nM
- EGFR tyrosine kinase autophosphorylation [8]: not inhibited
- EGFR tyrosine kinase autophosphorylation ([8]; listed as KX-391): less active
- GI50 [9]: 10 nM
- IC50 (SW1088): 76.1 nM
- IC50 (GL261): 13.7 nM
